Test results reported in publication PMC10000267, “ALA‐A2 Is a Novel Anticancer Peptide Inspired by Alpha‐Lactalbumin: A Discovery from a Computational Peptide Library, In Silico Anticancer Peptide Screening and In Vitro Experimental Validation” (Global Challenges, 2023).
Residues, ends and D or L forms follow the SMILES beside them.

What was measured:
A549 lung cancer cells = assay: Confocal microscopy: cell internalization and membrane integrity (PI); assay type: cell-based, human; conditions: A549, peptide 200 µM 24 h, Triton X‐100 0.5% v/v 10 min, PI staining
Description: All cells were then incubated with PI (1:2000) and Hoechst 33342 (1:5000) in the culture medium at 37 °C in 5% CO2 for 15 min. The cells were washed with PBS twice before being fixed with 4% paraformaldehyde (PFA) in PBS. The fixed cells were washed twice with PBS and mounted in 20% glycerol in PBS. […] Thereafter, the cells were stained with PI for 15 min at room temperature, washed with PBS, and then mounted with 20% glycerol in PBS. Internalization was visualized by confocal fluorescence microscopy (Nikon Instruments, Inc., Melville, NY, USA).

Human red blood cells = assay: Ex vivo hemolysis assay (RBC lysis assay); assay type: cell-based; conditions: 1 h, peptide 200 µM; for percent hemolysis: ≈0.8% v/v human RBC suspension in 0.9% normal saline, room temperature, absorbance 415 nm, relative to 1% Triton X‐100, blood of three healthy individuals, mean ± SD
Description: The hemolysis assay was as described previously.^[ [30] ^] After informed consent, peripheral blood (3 mL) was collected from three healthy individuals into heparin tubes (BD Biosciences, NJ, USA). The specimen was centrifuged at 2000 × g for 5 min at room temperature, and the plasma was discarded. The RBCs were washed twice with PBS and then resuspended in 0.9% normal saline solution at a volume equivalent to that of the original plasma. Approximately 0.8% v/v RBC suspension was incubated with the peptides at 200 µM (100 µL final volume) in a U‐bottom 96‐well plate at room temperature for 1 h with agitation. 1% v/v Triton X‐100 was applied as a positive control. The untreated condition served as the blank control. After 1 h incubation, the supernatants were collected by centrifuging at 2000 × g for 5 min at room temperature. The absorbance of hemoglobin in the supernatant was measured at 415 nm. The hemolysis percentage was calculated as follows: (2) % Hemolysis = [sample absorbance−blank control/positive control−blank control] × 100

[1] = tested on: A549 lung adenocarcinoma cells; assay: In vitro cancer cytotoxicity (MTT assay); assay type: cell-based, human; conditions: A549, peptide 200 µM, 24 h
Description: (§1) All cell lines were obtained from the American Type Culture Collection (ATCC, Manassas, VA, USA). The A549 lung adenocarcinoma (ATCC CCL‐185TM), MDA‐MB‐231 triple‐negative breast adenocarcinoma (ATCC HTB‐26TM), and SH‐SY5Y neuroblastoma (ATCC CRL‐2266TM) cell lines were cultured in Dulbecco's Modified Eagle's Medium (DMEM)‐high glucose (Gibco, Thermo Fisher Scientific, MA, USA). HT29 colon adenocarcinoma (ATCC HTB‐38) cell lines were maintained in DMEM/Nutrient Mixture F‐12 (Gibco). K562 chronic myeloid leukemia (ATCC CRL‐3344) were grown in Roswell Park Memorial Institute Medium 1640 (Gibco). The cells were cultured in medium supplemented with 10% fetal bovine serum (Gibco) and 1× penicillin/streptomycin (Gibco) and incubated in a 5% CO2 incubator with saturated humidity.
(§2) The protocol previously described by Chiangjong et al. and Baindara et al.^[ [5], [29] ^] was modified for use in determining the cytotoxicity of peptides on the various cancer types. Adherent cells were seeded at 1 × 10^4 cells/well into a 96‐well plate 24 h prior to replacing the media containing the peptide of interest. Suspended cells were seeded at 1 × 10^4 cells/well in the media containing the peptide of interest. Five human cell lines, including lung cancer (A549), colon cancer (HT29), breast cancer (MDA‐MB‐231), neuroblastoma (SH‐SY5Y), and leukemia (K562) cells, were treated with the culture media containing the peptides at 200 µM for 24 h. Cell viability was then determined using Cell Proliferation Kit I, MTT (Roche Diagnostics GmbH, Mannheim, Germany): MTT labeling reagent (10 µL) was added to each well and incubated at 37 °C in a 5% CO2 atmosphere for 4 h. After incubation, 100 µL solubilizing solution was added to each well and incubated at 37 °C in 5% CO2 overnight. The absorbance at 570 nm (A 570) was measured for each well. The percentage of cell viability was calculated as: (1) % Cell Viability=[A570 of treated cells − A570 of media/A570 of untreated cells−A570 of media] × 100
(§3) To evaluate dose‐dependency, ≈1 × 10^4 cells/well were cultured in media containing ALA‐A2 at 0, 6.25, 12.5, 25, 50, 100, 200, and 400 µM in a 96‐well plate for 24 h. Cell viability was determined by the MTT assay, as above.

[2] = tested on: HT29 colon adenocarcinoma cells; assay: In vitro cancer cytotoxicity (MTT assay); assay type: cell-based, human; conditions: HT29, peptide 200 µM, 24 h
Description: as §1, §2, §3

[3] = tested on: SH‐SY5Y neuroblastoma cells; assay: In vitro cancer cytotoxicity (MTT assay); assay type: cell-based, human; conditions: peptide 200 µM, 24 h
Description: as §1, §2

[4] = tested on: MDA‐MB‐231 breast cancer cells; assay: In vitro cancer cytotoxicity (MTT assay); assay type: cell-based, human; conditions: MDA‐MB‐231, peptide 200 µM, 24 h
Description: as §1, §2

K562 leukemia cells = assay: In vitro cancer cytotoxicity (MTT assay); assay type: cell-based, human; conditions: K562, peptide 200 µM, 24 h
Description: as §1, §2

Row | Molecule | membrane integrity / propidium iodide internalization (in words) (A549 lung cancer cells) | hemolytic effect (in words) (Human red blood cells; human RBCs, Triton X‐100 1% v/v) | anticancer effect (in words) [1] | anticancer effect (in words) [2] | anticancer effect (in words) [3] | anticancer effect (in words) [4] | anticancer effect (in words) (K562 leukemia cells) | percent hemolysis (Human red blood cells)
1 | Triton X‐100 [reference compound] | is internalized | completely lysed | – | – | – | – | – | –
2 | CC[C@H](C)[C@H](NC(=O)CNC(=O)[C@@H](NC(=O)[C@H](CC(C)C)NC(=O)[C@H](Cc1ccccc1)NC(=O)[C@H](CC(C)C)NC(=O)[C@@H]1CCCN1C(=O)[C@@H](NC(=O)[C@H](Cc1ccccc1)NC(=O)[C@H](Cc1ccccc1)NC(=O)[C@@H](N)CCCNC(=N)N)C(C)C)C(C)C)C(=O)N[C@@H](CC(C)C)C(=O)N[C@@H](Cc1ccccc1)C(=O)N1CCC[C@H]1C(=O)N[C@@H](C)C(=O)N[C@H](C(=O)N[C@@H](CC(C)C)C(=O)N[C@@H](C)C(=O)N[C@@H](CCCCN)C(=O)N[C@@H](CCC(N)=O)C(=O)N[C@@H](Cc1ccccc1)C(=O)N[C@H](C(=O)N[C@@H](CCCCN)C(=O)N[C@@H](CS)C(=O)O)[C@@H](C)O)[C@@H](C)CC [ALA‐A3] (H-RFFVPLFLVGILFPAILAKQFTKC-OH) | – | – | did not exhibit a substantial anticancer effect | did not exhibit a substantial anticancer effect | did not exhibit a substantial anticancer effect | did not exhibit a substantial anticancer effect | did not exhibit a substantial anticancer effect | 1.3% ± 1.2%
3 | CC[C@H](C)[C@H](NC(=O)[C@H](CCC(N)=O)NC(=O)[C@H](Cc1ccccc1)NC(=O)[C@@H](N)CC(C)C)C(=O)N[C@@H](CO)C(=O)N[C@@H](CC(N)=O)C(=O)N[C@@H](CCCCN)C(=O)N[C@@H](CC(C)C)C(=O)N[C@@H](Cc1c[nH]c2ccccc12)C(=O)N[C@@H](CS)C(=O)N[C@@H](CCCCN)C(=O)N[C@@H](CO)C(=O)N[C@@H](CO)C(=O)N[C@@H](CCC(N)=O)C(=O)N[C@H](C(=O)N1CCC[C@H]1C(=O)N[C@@H](CCC(N)=O)C(=O)N[C@@H](CO)C(=O)N[C@@H](CCCNC(=N)N)C(=O)N[C@@H](CC(N)=O)C(=O)O)C(C)C [ALA‐A4] (H-LFQISNKLWCKSSQVPQSRN-OH) | – | – | did not exhibit a substantial anticancer effect | did not exhibit a substantial anticancer effect | did not exhibit a substantial anticancer effect | did not exhibit a substantial anticancer effect | did not exhibit a substantial anticancer effect | 0.7% ± 0.6%
4 | CC[C@H](C)[C@H](NC(=O)CNC(=O)[C@@H](NC(=O)[C@H](CC(C)C)NC(=O)[C@H](Cc1ccccc1)NC(=O)[C@H](CC(C)C)NC(=O)[C@@H]1CCCN1C(=O)[C@@H](NC(=O)[C@H](Cc1ccccc1)NC(=O)[C@H](Cc1ccccc1)NC(=O)[C@@H](N)CCCNC(=N)N)C(C)C)C(C)C)C(=O)N[C@@H](CC(C)C)C(=O)N[C@@H](Cc1ccccc1)C(=O)N1CCC[C@H]1C(=O)N[C@@H](C)C(=O)N[C@H](C(=O)N[C@@H](CC(C)C)C(=O)N[C@@H](C)C(=O)N[C@@H](CCCCN)C(=O)N[C@@H](CCC(N)=O)C(=O)N[C@@H](Cc1ccccc1)C(=O)N[C@H](C(=O)N[C@@H](CCCCN)C(=O)O)[C@@H](C)O)[C@@H](C)CC [ALA‐A1] (H-RFFVPLFLVGILFPAILAKQFTK-OH) | – | – | did not exhibit a substantial anticancer effect | did not exhibit a substantial anticancer effect | did not exhibit a substantial anticancer effect | did not exhibit a substantial anticancer effect | did not exhibit a substantial anticancer effect | 5.6% ± 0.6%
5 | CC[C@H](C)[C@H](NC(=O)[C@H](CO)NC(=O)[C@@H]1CCCN1C(=O)[C@H](C)NC(=O)CNC(=O)[C@H](CC(C)C)NC(=O)[C@H](CCCCN)NC(=O)[C@H](CCCCN)NC(=O)[C@H](CCSC)NC(=O)[C@H](CCCNC(=N)N)NC(=O)[C@H](Cc1c[nH]c2ccccc12)NC(=O)[C@H](CCC(N)=O)NC(=O)[C@H](Cc1c[nH]c2ccccc12)NC(=O)[C@H](CCCNC(=N)N)NC(=O)[C@H](CCCNC(=N)N)NC(=O)[C@H](CS)NC(=O)[C@H](CCCCN)NC(=O)[C@@H](N)Cc1ccccc1)C(=O)N[C@H](C(=O)N[C@@H](CS)C(=O)N[C@H](C(=O)N[C@@H](CCCNC(=N)N)C(=O)O)C(C)C)[C@@H](C)O [BMP‐S6, reference compound] | – | – | – | – | – | – | exhibited cancer cytotoxicity | –
